ChEMBL document CHEMBL6087414, “Discovery of 4-(4-(3-(1-(2-(piperidin-1-yl)ethyl)-1H-benzo[d]imidazole-2-yl)isoxazol-5-yl)phenyl)morpholine as a novel c-Myc inhibitor against lung cancer in vitro and in vivo” (Eur J Med Chem, 2025)

Assays:
A549 = assay: Cytotoxicity against human A549 cells assessed as inhibition of cell viability incubated for 48 hrs by CCK8 assay; type: functional, cell-based; details: A549, 48 h
NCI-H1299 = assay: Cytotoxicity against human NCI-H1299 cells assessed as inhibition of cell viability incubated for 48 hrs by CCK8 assay; type: functional, cell-based; details: NCI-H1299, 48 h

| Compound | IC50 (A549) [µM] | IC50 (NCI-H1299) [µM] |
| --- | --- | --- |
| CCN(CC)CCCn1c(-c2cc(-c3ccc(N(C)C)cc3)on2)nc2ccccc21 | 8.78 | 19.7 |
| Cc1ccc(C(=O)n2c(-c3cc(-c4ccc(N5CCOCC5)cc4)on3)nc3ccccc32)cc1 | 19.2 | 22.2 |
| CN(C)c1ccc(-c2cc(-c3nc4ccccc4n3CCCN3CCCCC3)no2)cc1 | 11.6 | 16.9 |
| CN(C)c1ccc(-c2cc(-c3nc4ccccc4n3CCN3CCCCCC3)no2)cc1 | 11.4 | 18.2 |
| CN(C)c1ccc(-c2cc(-c3nc4ccccc4n3CCCN3CCOCC3)no2)cc1 | 13.6 | 17 |
| c1ccc2c(c1)nc(-c1cc(-c3ccc(N4CCCCC4)cc3)on1)n2CCN1CCCC1 | 7.68 | 19 |
| c1ccc2c(c1)nc(-c1cc(-c3ccc(N4CCCCCC4)cc3)on1)n2CCN1CCCC1 | 10.5 | 24.6 |
| O=C(c1ccccc1)n1c(-c2cc(-c3ccc(F)cc3)on2)nc2ccccc21 | > 40 | 23.9 |
| c1ccc2c(c1)nc(-c1cc(-c3ccc(N4CCCCC4)cc3)on1)n2CCN1CCCCC1 | 9.23 | 21.5 |
| Cc1cc(C)cc(OCCn2c(C3CC(=O)N(c4cccc(C)c4)C3)nc3ccccc32)c1 (centres undefined) | 15.3 | 18.8 |
| c1ccc2c(c1)nc(-c1cc(-c3ccc(N4CCCCC4)cc3)on1)n2CCCN1CCCCC1 | 13.6 | 29.1 |
| c1ccc2c(c1)nc(-c1cc(-c3ccc(N4CCOCC4)cc3)on1)n2CCN1CCCCCC1 | 9.94 | 27.6 |
| CCN(CC)CCCn1c(-c2cc(-c3ccc(N4CCOCC4)cc3)on2)nc2ccccc21 | 8.53 | 22.1 |
| c1ccc2c(c1)nc(-c1cc(-c3ccc(N4CCCCC4)cc3)on1)n2CCN1CCOCC1 | 11.2 | 23.8 |
| CCN(CC)CCCn1c(-c2cc(-c3ccc(N4CCCCCC4)cc3)on2)nc2ccccc21 | 12.2 | 14.3 |
| c1ccc2c(c1)nc(-c1cc(-c3ccc(N4CCCC4)cc3)on1)n2CCN1CCOCC1 | 19.9 | 36 |
| c1ccc2c(c1)nc(-c1cc(-c3ccc(N4CCCCC4)cc3)on1)n2CCCN1CCOCC1 | 13.8 | 24.2 |
| CN(C)c1ccc(-c2cc(-c3nc4ccccc4n3CCN3CCCC3)no2)cc1 | 10.7 | 14.2 |
| CN(C)CCCn1c(-c2cc(-c3ccc(N(C)C)cc3)on2)nc2ccccc21 | 20.6 | 17.9 |
| c1ccc2c(c1)nc(-c1cc(-c3ccc(N4CCCCCC4)cc3)on1)n2CCN1CCCCCC1 | 14.8 | 26.4 |
| O=C(c1ccccc1)n1c(-c2cc(-c3ccc(N4CCOCC4)cc3)on2)nc2ccccc21 | 20.9 | 19.5 |
| CN(C)CCCn1c(-c2cc(-c3ccc(N4CCCCC4)cc3)on2)nc2ccccc21 | 6.04 | 15.4 |
